This is an account of results in patent US20220168434A1, “APPLICATION OF TRANSTHYRETIN IN ENTERING EYE AND PREPARING DROP” (YIZHOU (SHANGHAI) BIOLOGICAL MEDICINE CO, LTD., priority 2019, published 2022).

The test system of assay [1] is DR SD rats induced by STZ. The assay can be described thus: DR (diabetic retinopathy) SD rats induced by STZ, eye dropping, EB staining and Trypsin enzymatic hydrolysis of retina. The class given is in vivo. The following applies: for eyeball retinal leakage condition (in words) / number of retinal neovascularization (in words): eye dropping twice per day. As to the method:
8-week-old SD rats weighing 200-250 g was fasted for 12-18 h, and treated with intraperitoneally injection of 2% STZ (60 mg/kg), followed by cutting the tail and collecting blood thereof after 48 h and 72 h. […] DR SD rats were divided into 2 large groups, one is DR SD rats without any treatment (5 rats), and the other is the human TTR eye dropping group (25 rats) dropped with the human TTR prepared in Example 5, each left eye dropped with human TTR (5-20 μmol/L) (normal saline+2% hyaluronic acid) twice a day, and each right eye dropped with saline+2% hyaluronic acid; in addition, another group of normal SD rats (No eye dropping) served as a normal control group (5 rats).
8-week-old SD rats weighing 200-250 g was fasted for 12-18 h, and treated with intraperitoneally injection of 2% STZ (60 mg/kg), followed by cutting the tail and collecting blood thereof after 48 h and 72 h. […]
8-week-old SD rats weighing 200-250 g, was fasted for 12-18 h, and treated with intraperitoneally injection of 2% STZ (60 mg/kg), followed by cutting the tail and collecting blood thereof after 48 h and 72 h. […] Wherein, the left eye was dropped with human TTR prepared in Example 5, or human TTR prepared in Example 5 added with the ligand, specifically with 10 μmol/L human TTR (saline solution+2% hyaluronic acid), 10 μmol/L human TTR (saline solution+2% hyaluronic acid+10 diclofenac sodium), 10 μmol/L human TTR (saline solution+2% hyaluronic acid+5 μmol/L vitamin A+5% Tween 80) and 10 μmol/L human TTR (saline solution+2% hyaluronic acid+5 luteoloside); the right eye was dropped with saline solution+2% hyaluronic acid, or saline solution+2% hyaluronic acid+ligand as control, specifically with saline solution+2% hyaluronic acid, saline solution+2% hyaluronic acid+10 diclofenac sodium, saline solution+2% hyaluronic acid+5 μmol/L vitamin A+5% Tween 80 and saline solution+2% hyaluronic acid+5 μmol/L luteoloside. In addition, there was another group of normal SD rats as a normal control group (5 rats). All SD rats were fed for 3 months, followed by stripping the retina for staining with Evans Blue (EB) to observe the retinal vascular leakage, for Trypsin enzymatic hydrolysis to observe the density of neovascularization.

Assay [2] concerns ROP SD suckling rats induced by hyperbaric oxygen chamber. The assay can be described thus: ROP (retinopathy of prematurity) SD suckling rats induced by hyperbaric oxygen chamber, eye dropping, EB staining of retina. The class given is in vivo.
In assay [3] the test system is AMD C57BL/6 mice induced by laser retinal photocoagulation. The assay can be described thus: AMD (age-related macular degeneration) C57BL/6 mice induced by laser retinal photocoagulation, eye dropping, EB staining and Trypsin enzymatic hydrolysis of retina. The class given is in vivo. The following applies: for eyeball retinal leakage condition (in words) / number of retinal neovascularization / neovascularization condition (in words): 10 μmol/L, eye dropping twice per day.
Description: (§1) 9-week-old C57BL/6 mice were subject to retinal photocoagulation by krypton laser (647 nm), with a power of 360 mW, a diameter of 50 μm, a time of 0.05 s, 8 photocoagulation site for each eye, for inducing the neovascularization in choroid, and gradually proceeding to retinal hyperplasia to obtain AMD C57BL/6 mice. AMD C57BL/6 mice were divided into a dropping group and a non-dropping group.
as §1, with “group. […] The animals were sacrificed after eye dropping for 2 weeks, and the retina was stripped for EB staining to observe the retinal leakage conditions, and for Trypsin enzymatic hydrolysis to observe the density of neovascularization.” for “group.”
9-week-old C57BL/6 mice were subject to retinal photocoagulation by krypton laser (647 nm), with a power of 360 mW, a diameter of 50 μm, a time of 0.05 s, 8 photocoagulation site for each eye, for inducing the neovascularization in choroid, and gradually proceeding to retinal hyperplasia to obtain AMD C57BL/6 mice. […] Wherein, the left eye was dropped with human TTR prepared in Example 5, or human TTR prepared in Example 5 added with the excipient, specifically with 10 μmol/L human TTR (saline solution), 10 μmol/L human TTR (saline solution+6 mg/mL sodium carboxymethyl cellulose), 10 μmol/L human TTR (saline solution+6 mg/mL PEG400), 10 μmol/L human TTR (saline solution+0.4 mg/mL dextran 70) and 10 μmol/L human TTR (saline solution+20 mg/mL chondroitin sulfate A sodium salt); the right eye was dropped with saline solution, or saline solution added with the excipient as control, specifically with saline solution, saline solution+6 mg/mL sodium carboxymethyl cellulose, saline solution+6 mg/mL PEG400, saline solution+0.4 mg/mL dextran 70 and saline solution+20 mg/mL chondroitin sulfate A sodium salt). In addition, there was another group of normal […] C57BL/6 mice as a normal control group (5 mice). The animals were sacrificed after eye dropping for 2 weeks, and the retina was stripped for EB staining to observe the retinal leakage conditions, and for Trypsin enzymatic hydrolysis to observe the density of neovascularization.
9-week-old C57BL/6 mice were subject to retinal photocoagulation by krypton laser (647 nm), with a power of 360 mW, a diameter of 50 μm, a time of 0.05 s, 8 photocoagulation site for each eye, for inducing the neovascularization in choroid, and gradually proceeding to retinal hyperplasia to obtain AMD C57BL/6 mice. […] Wherein, the left eye was dropped with human TTR prepared in Example 5, or human TTR prepared in Example 5 added with the ligand, specifically with 10 μmol/L human TTR (saline solution+2% hyaluronic acid), 10 μmol/L human TTR (saline solution+2% hyaluronic acid+10 diclofenac sodium), 10 μmol/L human TTR (saline solution+2% hyaluronic acid+5 μmol/L vitamin A+5% Tween 80) and 10 μmol/L human TTR (saline solution+2% hyaluronic acid+5 μmol/L luteoloside); the right eye was dropped with saline solution+2% hyaluronic acid, or saline solution+2% hyaluronic acid+ligand as control, specifically with saline solution+2% hyaluronic acid, saline solution+2% hyaluronic acid+10 diclofenac sodium, saline solution+2% hyaluronic acid+5 μmol/L vitamin A+5% Tween 80 and saline solution+2% hyaluronic acid+5 luteoloside. In addition, there was another group of normal C57BL/6 mice as a normal control group (5 mice). The animals were sacrificed after eye dropping for 2 weeks, and the retina was stripped for EB staining to observe the retinal leakage conditions, and for Trypsin enzymatic hydrolysis to observe the density of neovascularization.

The next assay addresses T1, TTR (Homo sapiens, UniProt P02766).
T1 construct: made in house; host or cells: E. coli BL21 (DE3)
The assay can be described thus: Affinity binding equilibrium dissociation constant Kd of TTR and ligand molecules by nano ITC. The following applies: 10 μmol/L TTR solution, 100 μmol/L ligand solution dropped at 1 μL/min, read-out: Affinity binding equilibrium dissociation constants (Kd) of ligand molecule and TTR. As to the method:
The affinity binding equilibrium dissociation constant Kd of TTR and each ligand molecule or salts thereof described in Example 24 was determined by nano ITC (TA).

The target in the next assay is TTR dimer (Homo sapiens, UniProt P02766). The following applies: static co-crystallization model in the PDB database (3CFQ); cited from earlier work.
Setting [4] is: DR SD rats induced by STZ, 3 months of eye dropping, ligand independently (no TTR) in saline + 2% hyaluronic acid: 10 μmol/L diclofenac sodium/5 μmol/L vitamin A + 5% Tween 80/5 μmol/L luteoloside, right eye.
Setting [5] is: ROP SD suckling rats induced by hyperbaric oxygen chamber, 5 days of eye dropping, ligand independently (no TTR) in saline + 2% hyaluronic acid: 10 μmol/L diclofenac sodium/5 μmol/L vitamin A + 5% Tween 80/5 μmol/L luteoloside, right eye.
[6] abbreviates: AMD C57BL/6 mice induced by laser retinal photocoagulation, 2 weeks of eye dropping, ligand independently (no TTR) in saline + 2% hyaluronic acid: 10 μmol/L diclofenac sodium/5 μmol/L vitamin A + 5% Tween 80/5 μmol/L luteoloside, right eye.
Where [7] appears, read: DR SD rats induced by STZ, 3 months.
[8] abbreviates: DR SD rats, 10 μmol/L in saline solution + 2% hyaluronic acid, eyedropping twice a day, 3 months.
Setting [9] is: ROP SD suckling rats, 10 μmol/L in saline solution + 2% hyaluronic acid, eyedropping once per day, 5 days.
The mark [10] stands for this setting: AMD C57BL/6 mice, 10 μmol/L in saline solution + 2% hyaluronic acid, eyedropping twice per day, 2 weeks.

Regarding `O=c1cc(-c2ccc(O)c(O)c2)oc2cc(O[C@@H]3O[C@H](CO)[C@@H](O)[C@H](O)[C@H]3O)cc(O)c12` [Luteoloside, luteoloside, reference compound], the “No. of retinal neovascularization (10 visual fields)” value (shortened to “No. of retinal neovascularization”) in assay [1] (setting [4]) was found to be 79 ± 9; in assay [3] (setting [6]), 82 ± 8. Besides, the Retinal leakage area in assay [1] (setting [4]) came to 27.6%; in assay [2] (setting [5]) it was 51.2 ± 6.8%; in assay [3] (setting [6]), 21.3 ± 2.2%. Further, at TTR, the equilibrium dissociation constant (Kd) turned out to be 129 nM.
As for “rat TTR: recombinant rat TTR, amino acid sequence SEQ ID NO: 9”, in assay [1] (setting [7]), the “eyeball retinal leakage condition (in words)” value is on record as “significantly inhibited” and the “number of retinal neovascularization (in words)” value is “reduced significantly”. In assay [1] (setting [8]), the “No. of retinal neovascularization” value is listed as 13 ± 2 and the Retinal leakage area came out at 6.2 ± 0.7%. Moreover, in assay [2] (setting [9]), the Retinal leakage area worked out at 3.6%.
For the compound `O=C(O)Cc1ccccc1Nc1c(Cl)cccc1Cl` [diclofenac], the “molecules of ligand that one molecule of TTR dimer can bind” value on TTR dimer was “two molecules”.
For `O=C(O)Cc1ccccc1Nc1c(Cl)cccc1Cl` [Diclofenac sodium, diclofenac sodium, reference compound], the figures for the “No. of retinal neovascularization” value in assay [1] (setting [4]) and in assay [3] (setting [6]) were 80 ± 9 and 85 ± 6, respectively. Further, the Retinal leakage area in assay [1] (setting [4]) amounted to 30.4%; in assay [2] (setting [5]) it was 48.5 ± 5.8%; in assay [3] (setting [6]) it was 25.2 ± 3.0%. Moreover, the Kd on TTR is 45 nM.
With `CC1=C(/C=C/C(C)=C/C=C/C(C)=C/CO)C(C)(C)CCC1` [Vitamin A, retinol, reference compound], the results for the “No. of retinal neovascularization” value in assay [1] (setting [4]) and in assay [3] (setting [6]) were 76 ± 8 and 79 ± 10, respectively. For the same compound, the Retinal leakage area is listed as 28.9% in assay [1] (setting [4]), 46.9 ± 4.9% in assay [2] (setting [5]) and 26.7 ± 3.4% in assay [3] (setting [6]). The Kd on TTR was determined as 22.7 nM.
“human TTR-CL: human mature TTR losing C terminus-TNPKE, amino acid sequence of SEQ ID NO: 11”: the “eyeball retinal leakage condition (in words)” value in assay [1] (setting [7]) is recorded as “significantly inhibited”; in assay [3] (AMD C57BL/6 mice, 2 weeks), “inhibited significantly”. Further, the “number of retinal neovascularization (in words)” value in assay [1] (setting [7]) is on record as “reduced significantly”. Besides, the “No. of retinal neovascularization” value in assay [1] (setting [8]) was found to be 10 ± 1; in assay [3] (setting [10]), 11 ± 2. Also, the Retinal leakage area in assay [1] (setting [8]) came out at 5.7 ± 0.9%; in assay [2] (setting [9]), 3.0%; in assay [3] (setting [10]), 4.8 ± 0.6%. Besides, the “number of retinal neovascularization / neovascularization condition (in words)” value in assay [3] (AMD C57BL/6 mice, 2 weeks) is given as “reduced significantly”.
On to “mouse TTR: recombinant mouse TTR, amino acid sequence SEQ ID NO: 10”, for which, in assay [3] (setting [10]), the “No. of retinal neovascularization” value was 10 ± 3 and the Retinal leakage area is 4.2 ± 0.5%. In addition, in assay [3] (AMD C57BL/6 mice, 2 weeks), the “eyeball retinal leakage condition (in words)” value is “inhibited significantly” and the “number of retinal neovascularization / neovascularization condition (in words)” value is “reduced significantly”.
As to `CC1=C(/C=C/C(C)=C/C=C/C(C)=C/CO)C(C)(C)CC=C1` [Vitamin A2, 3-dehydroretinol], on TTR, the Kd worked out at 23.5 nM.

A word on the Kd: it is the free concentration of one partner at which half of the binding sites on the other are occupied at equilibrium, for simple one-to-one binding.
